This note sets out measurements from paper PMC6599079 (Nature Communications, 2019).

Where two headings read alike, the source gives them in different places. Square brackets hold non-standard residues; d marks the D form. Ends that are not written are not given here. Met(O) = CS(=O)CC[C@H](N)C(=O)O Some results are limits rather than exact numbers.

The target of assay [1] is T1, H-2K^b (Mus musculus, UniProt P01901).
T1 sequence (P01901 22-369): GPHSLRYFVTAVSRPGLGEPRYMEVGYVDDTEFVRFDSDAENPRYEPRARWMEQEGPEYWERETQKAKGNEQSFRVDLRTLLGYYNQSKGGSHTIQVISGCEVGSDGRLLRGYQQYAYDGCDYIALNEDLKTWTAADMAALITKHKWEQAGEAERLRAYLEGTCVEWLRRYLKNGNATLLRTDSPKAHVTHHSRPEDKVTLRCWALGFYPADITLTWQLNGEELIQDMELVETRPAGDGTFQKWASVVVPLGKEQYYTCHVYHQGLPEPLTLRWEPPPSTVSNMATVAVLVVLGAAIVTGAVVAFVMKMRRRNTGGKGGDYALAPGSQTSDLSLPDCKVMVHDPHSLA
T1 sequence (P01887 21-119 partner): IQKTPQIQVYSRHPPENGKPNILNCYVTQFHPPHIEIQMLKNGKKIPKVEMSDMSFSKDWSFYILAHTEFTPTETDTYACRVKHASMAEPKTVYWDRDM
The assay can be described thus: biochemical. The assay is classed as binding.

Assay [2] concerns the target T2, H-2D^b (Mus musculus, UniProt P01899).
T2 sequence (P01899 25-362): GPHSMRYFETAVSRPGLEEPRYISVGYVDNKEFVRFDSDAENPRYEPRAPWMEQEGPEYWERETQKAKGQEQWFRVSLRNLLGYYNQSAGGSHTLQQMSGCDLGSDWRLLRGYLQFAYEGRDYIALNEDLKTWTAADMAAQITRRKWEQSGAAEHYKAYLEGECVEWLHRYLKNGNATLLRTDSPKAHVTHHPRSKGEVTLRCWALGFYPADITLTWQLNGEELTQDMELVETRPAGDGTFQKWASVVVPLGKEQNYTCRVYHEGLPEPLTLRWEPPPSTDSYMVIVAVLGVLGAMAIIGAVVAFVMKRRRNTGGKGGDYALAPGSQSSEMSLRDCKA
T2 sequence (P01887 21-119 partner): T1 sequence (P01887 21-119 partner)
Description: biochemical. It is filed as binding.

Assay [3] has as its system splenic CD8^+ T cells. The assay is classed as in vivo, C57BL/6 mice. Particulars: for IFNg#: spleen; for CTL response, ICS: file clean_CTLresponse_ICS_new, tissue not given.
In assay [4] the target is H-2b MHC class I (allele not given). Description: Classical competition assay of peptide binding to purified MHC; restricting allele not printed in the epitope label of this file. Set-up: species or system mouse. Particulars: epitope label without allele; file clean_file9_IC50; unit inferred.
Where [5] appears, read: Measured IC50 of each peptide, H-2K^b.
The mark [6] stands for this setting: Measured IC50 of each peptide, H-2D^b.
The mark [7] stands for this setting: 1st EXP, number of IFNg+ CD8 cells = IFNg% (w/o background) x CD8# 5103400, replicate Mouse 2.
[8] abbreviates: 1st EXP, number of IFNg+ CD8 cells = IFNg% (w/o background) x CD8# 5464800, replicate Mouse 3.
Setting [9] is: 1st EXP, number of IFNg+ CD8 cells = IFNg% (w/o background) x CD8# 5668200, replicate Mouse 4.
The mark [10] stands for this setting: 1st EXP, number of IFNg+ CD8 cells = IFNg% (w/o background) x CD8# 5724000, replicate Mouse 5.
The mark [11] stands for this setting: 1st EXP, number of IFNg+ CD8 cells = IFNg% (w/o background) x CD8# 6077000, replicate Mouse 1.
The mark [12] stands for this setting: 2nd EXP, number of IFNg+ CD8 cells per spleen (CD8# 2541000), Mouse 5.
Where [13] appears, read: 2nd EXP, number of IFNg+ CD8 cells per spleen (CD8# 2956300), Mouse 4.
[14] abbreviates: 2nd EXP, number of IFNg+ CD8 cells per spleen (CD8# 3816800), Mouse 1.
The mark [15] stands for this setting: 2nd EXP, number of IFNg+ CD8 cells per spleen (CD8# 4765200), Mouse 3.
Where [16] appears, read: 2nd EXP, number of IFNg+ CD8 cells per spleen (CD8# 5219500), Mouse 2.
The mark [17] stands for this setting: 2nd EXP, number of IFNg+ CD8 cells per spleen (CD8# 5392600), Mouse 6.
Where [18] appears, read: epitopes labelled Kb, file clean_file9_IC50, unit inferred, read-out: IC50.

Regarding IGRFYIQM [NP36–43], the IC50 (commonly the concentration that inhibits the measured activity by half) amounted to 0.0019 µM in assay [1] (setting [5]) and 3.3 µM in assay [2] (setting [6]).
As for KNMEYDAV [PB1_653–660], the figures for the 50% inhibitory concentration (IC50) in assay [1] (setting [5]) and in assay [2] (setting [6]) were 0.156 µM and above 40 µM, respectively.
As to 2 (TLTSANHA[Met(O)]I) [compound 2], the “IFNg#” value is reported as 1002.82 in assay [3] (setting [7]); 6300.91 in assay [3] (setting [8]); 49270.8 in assay [3] (setting [9]); 453.913 in assay [3] (setting [10]); 8544.26 in assay [3] (setting [11]); -2541 in assay [3] (setting [12]). In addition, the “IFNg#” value in assay [3] (setting [13]) was 765.09; in assay [3] (setting [14]), 334.733; in assay [3] (setting [15]), 3334.69; in assay [3] (setting [16]) it was 2635.85; in assay [3] (setting [17]) it was -650.348.
On to SSLENFRAYV [PA-224-233Db], for which the IC50 in assay [2] (epitopes labelled Db, file clean_file9_IC50, unit inferred, read-out: IC50) was determined as 0.000155 µM.
In the case of NGITNKVNTVI [HA389–399], the IC50 came to 22 µM in assay [1] (setting [5]) and 0.118 µM in assay [2] (setting [6]).
Regarding SSLENFRAYV [PA224–233], the values for the IC50 in assay [1] (setting [5]) and in assay [2] (setting [6]) were 0.038 µM and 0.00016 µM, respectively.
In the same order, the values of SFQDILLRM [NS2_8–16] are 0.185 µM and 10.7 µM.
The corresponding values for AGLKNDLLENL [M1_227–237] are 3.31 µM and 5.28 µM.
For VYIEVLHL [PB2_227–234], the IC50 was 0.0028 µM in assay [1] (setting [5]) and 20.9 µM in assay [2] (setting [6]).
With SQLKNNAKEI [HA467–476], the IC50 in assay [1] (setting [5]) was above 40 µM; in assay [2] (setting [6]), 0.173 µM.
In the case of MGLIYNRM [M1_128–135], the concentration for half-maximal inhibition (IC50) was 0.0926 µM in assay [1] (setting [5]) and above 40 µM in assay [2] (setting [6]).
In assay [4], HA-41-49 (VTVTHSVNL) came in with a 50% inhibitory concentration (IC50) of 0.872 µM. The “CTL response, ICS” value is 14900.8 in assay [3] (Mouse1); 4695.13 in assay [3] (Mouse2); 8913.09 in assay [3] (Mouse3); 22267.5 in assay [3] (Mouse4); 32844.3 in assay [3] (Mouse5); 2884.36 in assay [3] (Mouse11). Besides, the “CTL response, ICS” value in assay [3] (Mouse12) is 3836.33; in assay [3] (Mouse13), 2696.15; in assay [3] (Mouse14), 546.324; in assay [3] (Mouse15), 0; in assay [3] (Mouse16), 865.512.
Regarding VYIEVLHL [PB2-227-234Kb], in assay [1] (setting [18]), the half-maximal inhibitory concentration (IC50) came to 0.00277 µM.
With SGPDNGAVAV [NA181–190], the IC50 in assay [1] (setting [5]) stood at 0.262 µM; in assay [2] (setting [6]), 0.065 µM.
Consider YQNIHPVTI [HA308–316], for which the half-inhibitory concentration (IC50) came out at 1.14 µM in assay [1] (setting [5]) and 1.97 µM in assay [2] (setting [6]).
The corresponding values for SGPDNGAVAVL [NA181–191] are 0.585 µM and 0.064 µM.
In the same order, the values of RTFSFQLI [NS2_114–121] are 0.0047 µM and above 40 µM.
On to SSLPYQNI [HA304–311], for which the figures for the IC50 in assay [1] (setting [5]) and in assay [2] (setting [6]) were 0.0047 µM and above 40 µM, respectively.
In the same order, the values of VTVTHSVNL [HA41–49] are 0.0079 µM and 0.872 µM.
For the compound 19 (CFKFDHL) [compound 19], the “IFNg#” value was 34310.2 in assay [3] (setting [7]); 27968.8 in assay [3] (setting [8]); 21326.6 in assay [3] (setting [9]); 46581.9 in assay [3] (setting [10]); 28197.3 in assay [3] (setting [11]); 17050.1 in assay [3] (setting [12]). The “IFNg#” value is listed as 2143.61 in assay [3] (setting [13]); 22289 in assay [3] (setting [14]); 7728.2 in assay [3] (setting [15]); 8361.64 in assay [3] (setting [16]); 5535.5 in assay [3] (setting [17]).
As for `CSCC[C@H](NC(=O)[C@@H](NC(=O)[C@H](CCC(=O)O)NC(=O)[C@H](CCSC)NC(=O)[C@H](CC(N)=O)NC(=O)[C@H](CCC(=O)O)NC(=O)[C@H](CC(N)=O)NC(=O)[C@H](CO)NC(=O)[C@H](C)N)[C@@H](C)O)C(=O)O` [NP366–374], the IC50 was above 40 µM in assay [1] (setting [5]) and 0.018 µM in assay [2] (setting [6]).
LSLRNPILV [PB1-F2_62–70]: the IC50 in assay [1] (setting [5]) worked out at 12.4 µM; in assay [2] (setting [6]), 0.018 µM.
Consider `CC[C@H](C)[C@H](NC(=O)[C@H](CC(N)=O)NC(=O)[C@@H](N)CCSC)C(=O)N[C@@H](CCC(N)=O)C(=O)N[C@@H](Cc1ccccc1)C(=O)N[C@H](C(=O)N[C@@H](C)C(=O)N[C@H](C(=O)O)C(C)C)[C@@H](C)O` [HA402–409], for which the IC50 in assay [1] (setting [5]) came to 0.003 µM; in assay [2] (setting [6]) it was 6.18 µM.
As for SSYRRPVGI [PB1-703-711Kb], in assay [1] (setting [18]), the half-maximal inhibitory concentration (IC50) is 0.00194 µM.
For SSYRRPVGI [PB1_703–711], the 50% inhibitory concentration (IC50) in assay [1] (setting [5]) was 0.0019 µM; in assay [2] (setting [6]) it was 29 µM.
